Columns and labels:
[1] = tested on: GLUT4 (glucose transporter type 4); test: Promotion of GLUT4 membrane translocation in L6-GLUT4myc; format: cell-based, rat; settings: HPH-15 10 μM (1/200th of metformin 2 mM; insulin 100 nM), 24 hours
Experimental: GLUT4 (glucose transporter type 4) is involved in the uptake of glucose into cells. Thus, the relationship between HPH-15 and the membrane translocation of GLUT4 was examined using the myotube cell model L6-GLUT4myc.
The myotube cell model L6-GLUT4myc cells used in Example 1 were seeded onto a 24-well plate (1×10^5 cells/well, […] of culture liquid) and cultured overnight. Then, a DMSO solution (1%) containing HPH-15 (final concentration: 10 μM), metformin (final concentration: 2 mM), or insulin (final concentration: 100 nM) was added to the medium, and the cells were further cultured for 24 hours. As a control, only DMSO solution (1%) was added, and the cells were cultured for 24 hours in the same manner. Next, each cell was fixed for 20 minutes with a 3% paraformaldehyde solution (Tokyo Chemical Industry Co., Ltd.). The reaction was stopped with an 1% glycine solution (Merck KGaA), and blocking was performed for 15 minutes using a PBS solution containing 5% goat serum (FUJIFILM Wako Pure Chemical Corp.). […] Detection was performed using OPD reagent (o-phenylenediamine dihydrochloride: FUJIFILM Wako Pure Chemical Corp.), and the amount of GLUT4 was evaluated by measuring absorbance (492 nm).

[2] = tested on: myotube cell model L6-GLUT4myc, liver cell model HepG2 cells, adipocyte model 3T3-L1; test: Glucose uptake (2-deoxyglucose) into cells; format: cell-based, rat, human, mouse; settings: HPH-15 10 μM or 50 μM vs metformin 2 mM; 24 hours; 2-deoxyglucose 2 mM, 20 minutes
Experimental: The uptake of glucose into cells by HPH-15 was examined using the myotube cell model L6-GLUT4myc, the liver cell model HepG2 cells, and the adipocyte model 3T3-L1.
The myotube cell model L6-GLUT4myc, the liver cell model HepG2 cells, and the adipocyte model 3T3-L1 used in Example 1 were each seeded onto a 24-well plate (1×10^5 cells/well, […] of culture liquid) and cultured overnight. Then, a DMSO solution (1%) containing HPH-15 (final concentration: 10 μM or 50 μM), metformin (final concentration: 2 mM), or insulin (final concentration: 100 nM) was added to the medium, and the cells were further cultured for 24 hours. As a control, only DMSO solution (1%) was added, and the cells were cultured for 24 hours in the same manner. Next, the cells were washed with KRPH buffer (containing 2% BSA) and cultured in the presence of 2-deoxyglucose (final concentration: 2 mM, FUJIFILM Wako Pure Chemical Corp.) for 20 minutes at 37° C. The uptake of 2-deoxyglucose was stopped by washing the cells with cold PBS, and the amount of glucose taken up into the cells was measured using a Glucose Cellular Uptake Measurement Kit (Cosmo Bio).

[3] = tested on: myotube cell model L6-GLUT4myc, liver cell model HepG2 cells, adipocyte model 3T3-L1; test: Production of lactic acid in cells; format: cell-based, rat, human, mouse; settings: HPH-15 10 μM or 50 μM vs metformin 2 mM; 24 hours
Experimental: There is a concern that a therapeutic drug of diabetes may cause lactic acidosis due to the production of lactic acid, requiring caution, especially for patients with chronic renal failure or the elderly. Therefore, the production of lactic acid when HPH-15 was used was examined.
The myotube cell model L6-GLUT4myc, the liver cell model HepG2 cells, and the adipocyte model 3T3-L1 used in Example 1 were each seeded onto a 24-well plate (1×10^5 cells/well, […] of culture liquid) and cultured overnight. Then, a DMSO solution (1%) containing HPH-15 (final concentration: 10 μM or 50 μM) or metformin (final concentration: 2 mM) was added to the medium, and the cells were further cultured for 24 hours. As a control, only DMSO solution (1%) was added, and the cells were cultured for 24 hours in the same manner. Next, the amount of lactic acid accumulated in the cells was measured using the Lactate Assay Kit-WST (Dojindo Laboratories).

[4] = tested on: adipocyte model 3T3-L1; test: Cytotoxicity (MTT reagent); format: cell-based, mouse; settings: HPH-15 1 μM, 10 μM or 50 μM, 24 hours
Experimental: It was examined whether using HPH-15 as a drug caused any cytotoxicity.
The myotube cell model L6-GLUT4myc, the liver cell model HepG2 cells, and the adipocyte model 3T3-L1 used in Example 1 were each seeded onto a 24-well plate (1×10^5 cells/well, […] of culture liquid) and cultured overnight. Then, a DMSO solution (1%) containing HPH-15 (final concentration: 1 μM, 10 μM or 50 μM) was added to the medium, and the cells were further cultured for 24 hours. As a control, only DMSO solution (1%) was added, and the cells were cultured for 24 hours in the same manner. Next, […] of MTT reagent (3-(4,5-dimethyl-2-thiazolyl)-2,5-diphenyl-2H-tetrazolium bromide: 1.1 mg/mL: Dojindo Laboratories) was added to each well, and the cells were further cultured for 4 hours. After collecting the precipitated crystals, the supernatant was removed and DMSO ([…]) was added to completely dissolve the crystals. Cytotoxicity was evaluated by measuring the absorbance (550 nm) of the solution and determining the number of viable cells.

[5] = tested on: high-fat diet-induced obesity model mice; test: Sirius Red staining and collagen amount in mouse tissue; format: in vivo; settings: HPH-15 10 mg/kg or 100 mg/kg, metformin 300 mg/kg, orally 28 days, Western blotting
Experimental: High-fat diet-induced obesity model mice were prepared in the same manner as in Example 7. Then, HPH-15 (10 mg/kg or 100 mg/kg, […]) dissolved in olive oil or metformin (300 mg/kg, […]) was orally administered once a day for 28 days. Olive oil alone was administered as a control. After 28 days of administration of each, the liver and the epididymal fat of the high-fat diet-induced obesity model mice were stained with Sirius Red and observed using a microscope.
Further, high-fat diet-induced obesity model mice were prepared in the same manner as in Example 7. Then, HPH-15 (10 mg/kg or 100 mg/kg, […]) dissolved in olive oil or metformin (300 mg/kg, […]) was orally administered once a day for 28 days. Olive oil alone was administered as a control. After 28 days of administration of each, equal amounts (50 mg) of tissue pieces were collected from the liver and epididymal adipose tissues of the high-fat diet-induced obesity model mice, transferred to 1.5 mL Eppendorf tubes, and washed twice with PBS. After washing, the tissue pieces were transferred to BIOMASHER II, […] of RIPA buffer was added, and the tissue pieces were homogenized on ice. After homogenization, the tissue pieces were centrifuged (10,000 rpm, 4° C., 5 min) and the supernatant was obtained as a protein solution. The concentration of the proteins thus obtained was corrected based on the protein concentration measured by the BCA method using bicinchoninic acid (BCA), thereby preparing samples for Western blotting. Western blotting was quantified using ImageJ to calculate the amount of collagen.

## CC(C)(C)SCCNC(=S)c1cccc(C(=S)NCCSC(C)(C)C)n1 [HPH-15]
[1]
  amount of GLUT4 localized in the membrane: promoted membrane translocation of GLUT4 to the same extent as metformin or insulin
[2]
  glucose uptake amount: increased the glucose uptake amount to the same extent as or to a greater extent than metformin
[3]
  production of lactic acid: equal to or less than that by metformin
[4]
  cytotoxicity (number of viable cells): no cytotoxicity was confirmed
[5]
  amount of collagen in the epididymal adipose tissue: strongly reduced
  amount of collagen in the liver tissue: strongly reduced
